This passage reports GRP78 induction results from US8663632B1, “Compositions and methods for selectively targeting cancer cells using a thiaminase compound” (University of Kentucky Research Foundation, priority 2008, dated 2014).

The test system of the experiment is GRP78 and UPR pathway proteins in breast cancer cell lines. In words: Immunoblot analysis of energy and UPR pathway proteins. Format: cell-based, human. To be noted: tunicamycin 5 μg/ml, thapsigargin 1 μM; all four breast cancer cell lines. The procedure:
Cells were treated with thiaminase or anti-cancer agent for the indicated times and washed with ice-cold PBS. Cells were lysed with a triple-detergent lysis buffer (50 mM Tris pH8.0, 150 mM NaCl, 1% NP-40, 0.5% DOC, 0.1% SDS, 0.02% sodium azide and protease inhibitors). Equal amounts of protein were loaded into each well and separated by 10% SDS-PAGE gel, followed by transfer onto nitrocellulose membranes. The membranes were blocked, incubated with the indicated primary antibodies at 4° C. overnight, and the appropriate horseradish peroxidase-conjugated secondary antibody was added for 1 hour at room temperature. Immunoblots were developed by use of the enhanced chemiluminescence (ECL) detection system (Pierce, Rockford, Ill.) according to the manufacturer's protocol and autoradiography. All of the primary antibodies were purchased from Cell Signaling Technologies (Danvers, MA). The secondary antibodies were purchased from Sigma (St. Louis, Mo.). An anti-β-actin antibody was used as a control for protein loading.

With `C/C=C(/C)C(=O)O[C@H]1C(C)=C2[C@H]([C@@H]1OC(=O)CCCCCCC)[C@@](C)(OC(C)=O)C[C@H](OC(=O)CCC)[C@@]1(O)[C@H]2OC(=O)[C@@]1(C)O` [thapsigargin], the GRP78 induction entry was “marked induction”.

Turning to tunicamycin, the GRP78 induction result is reported as “marked induction”.
